Reference: patent US20110118347A1, “TREATMENT Of RINGWORM” (Vernolix Limited, priority 2008, published 2011)

Tests used:
T. tonsurans = assay: Screen for activity against fungal lawns of T. tonsurans; format: cell-based, Trichophyton tonsurans
[1] = Penetration of compounds of Formula I into mammalian skin (living pig skin); format: in vitro ADME; conditions: 5% by wt in lanolin-based cream, applied to outer surface of living pig skin, after one hour
Source text: The formulation may be applied to the outer surface of a section of living pig skin.

For `CCCCCC(O)C(O)CC=CCCCCCCCC(=O)O` (centres unmarked) [Compound (iv), 12,13-dihydroxyoctadec-9-enoic acid], the “fungicidal activity against fungal lawns of T. tonsurans” value (T. tonsurans) was “effective fungicidal activity” and the “penetration of the active compounds into the dermis and epidermis” value [1] was “a significant amount of compounds (i) and (iv) has penetrated the dermis”.
